Measurements reported in US8637671B2, “Indole derivatives as CRTH2 receptor antagonists” (Merck Canada Inc., priority 2008, dated 2014).

Biological target: T1, hCRTH2 (Homo sapiens, UniProt Q9Y5Y4)
T1 sequence (Q9Y5Y4 1-395): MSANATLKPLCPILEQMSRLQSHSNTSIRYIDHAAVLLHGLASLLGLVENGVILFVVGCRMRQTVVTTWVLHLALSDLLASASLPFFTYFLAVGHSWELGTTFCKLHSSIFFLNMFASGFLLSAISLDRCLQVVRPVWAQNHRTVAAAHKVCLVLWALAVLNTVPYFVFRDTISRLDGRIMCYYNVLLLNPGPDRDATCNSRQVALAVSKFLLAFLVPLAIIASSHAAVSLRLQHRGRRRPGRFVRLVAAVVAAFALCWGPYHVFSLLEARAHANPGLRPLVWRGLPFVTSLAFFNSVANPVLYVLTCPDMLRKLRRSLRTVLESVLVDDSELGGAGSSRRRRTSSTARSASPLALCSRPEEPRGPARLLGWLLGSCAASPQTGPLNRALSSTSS
Assay: Radioligand binding assay ([3H]PGD2 competition)
Protocol: Radioligand binding assay. […] Competing ligands were diluted in dimethylsulfoxide (Me2SO) that was kept constant at 1% (v/v) of the final incubation volume. The reaction was initiated by the addition of 8-20 μg of membrane protein prepared from a HEK-hCRTH2 cell line. Total and non-specific binding were determined in the absence and the presence of 10 μM PGD2, respectively. Under these conditions, specific binding (total minus non-specific) of the radioligand to the receptor reached equilibrium within 50 min and was stable up to 180 min. The reaction was routinely conducted for 60 min at room temperature and terminated by rapid filtration through prewetted Unifilters GF/C (Packard), using a Tomtec MachIII semi-automated harvester (for HEK-hCRTH2). The filters were then washed with 4 ml of the same buffer and residual radioligand bound to the filter was determined by liquid scintillation counting following equilibration in 25 μl Ultima Gold F™ (Unifilter) (Packard).

Ki [nM] | Compound
≤ 5 | O=C(O)Cc1c2n(c3ccccc13)C[C@H](N(Cc1ccc(F)cc1)C(=O)Cc1ccc(F)cc1)CC2 [Example 3, ((7R)-7-{(4-fluorobenzyl)[(4-fluorophenyl)acetyl]amino}-6,7,8,9-tetrahydropyrido[1,2-a]indol-10-yl)acetic acid]
≤ 5 | CN(C(=O)C1(c2ccc(Cl)cc2)CCCC1)[C@@H]1CCc2c(CC(=O)O)c3ccccc3n2C1 [Example 20, {(7R)-7-[{[1-(4-chlorophenyl)cyclopentyl]carbonyl}(methyl)amino]-6,7,8,9-tetrahydropyrido[1,2-a]indol-10-yl}acetic acid]
5 to 10 | CN(C(=O)C(C)(C)Cc1ccccc1)[C@@H]1CCc2c(CC(=O)O)c3ccccc3n2C1 [Example 26, {(7R)-7-[(2,2-dimethyl-3-phenylpropanoyl)(methyl)amino]-6,7,8,9-tetrahydropyrido[1,2-a]indol-10-yl}acetic acid]
5 to 10 | CN(C(=O)CCc1ccccc1)[C@@H]1CCc2c(CC(=O)O)c3ccccc3n2C1 [Example 29, {(7R)-7-[methyl(3-phenylpropanoyl)amino]-6,7,8,9-tetrahydropyrido[1,2-a]indol-10-yl}acetic acid]
≤ 5 | CC(C(=O)N(C)[C@@H]1CCc2c(CC(=O)O)c3ccccc3n2C1)c1ccccc1 (stereo partly drawn) [Example 30, ((7R)-7-{methyl [2-phenylpropanoyl]amino}-6,7,8,9-tetrahydropyrido[1,2-a]indol-10-yl)acetic acid]
50 to 100 | CN(C(=O)Cc1ccc(F)cc1Br)[C@@H]1CCc2c(CC(=O)O)c3ccccc3n2C1 [Example 34, {(7R)-7-[[(2-bromo-4-fluorophenyl)acetyl](methyl)amino]-6,7,8,9-tetrahydropyrido[1,2-a]indol-10-yl}acetic acid]
≤ 5 | CN(C(=O)C1(c2ccc(F)cc2)CC1(C)C)[C@@H]1CCc2c(CC(=O)O)c3ccccc3n2C1 (stereo partly drawn) [Example 35, {(7R)-7-[{[1-(4-fluorophenyl)-2,2-dimethylcyclopropyl]carbonyl}(methyl)amino]-6,7,8,9-tetrahydropyrido[1,2-a]indol-10-yl}acetic acid]
10 to 50 | COC(C(=O)N(C)[C@@H]1CCc2c(CC(=O)O)c3ccccc3n2C1)c1ccccc1 (stereo partly drawn) [Example 36, {(7R)-7-[[-2-methoxy-2-phenylacetyl](methyl)amino]-6,7,8,9-tetrahydropyrido[1,2-a]indol-10-yl}acetic acid]
